The results in this text go back to patent US20140187556A1, “ANTI-AMYLOID COMPOUNDS AND METHODS” (Treventis Corporation, priority 2011, published 2014).

Read-outs that look alike come from different tables or passages of the source.

The target of one data set is Tau441 (Homo sapiens, UniProt P10636). The data set can be described thus: Thioflavin S (ThS) tau aggregation assay. It counts as biochemical. As to conditions: 20 μM, FIG. 1. The method, then: Analogous to the method of Example 1, the ability of compounds to inhibit the aggregation of tau was performed by substituting […] with tau and Thioflavin T with Thioflavin S.

Data set [1] in a line: In vivo blood and brain exposure and brain/plasma ratio in ICR mice. As to conditions: male ICR mice. The method, then:
TRV 1140 was formulated in 3% N-methyl-2-pyrrolidone, 0.5% Cremaphor, 50% olive oil in water. The compound was formulated at a concentration of 2 mg/mL and dosed in a volume of 10 mL/kg to produce a dose of 20 mg/kg. The formulation was an emulsion. Compound was formulated fresh daily. Mice were dosed once daily for three days. Male ICR mice (S.A. Ace Animals; Boyertown, Pa.) were used for this experiment. Animals were group housed and kept on a standard 12 hr light cycle. Food and water were available ad libitum. On the third day mice were dosed with compound. At the designated time after 20 mg/kg dosing (30 min, 2 hrs, 4 hrs), whole blood was collected via the retro-orbital sinus in heparanized tubes and mixed with deionized water at a 1:1 ratio for hemolyzation. Hemolyzed blood was analyzed for levels of test agent. Blood samples were extracted by a standard protocol known in the art. At designated time points, mice were sacrificed. Brains were removed, weighed, and processed. Brains were homogenized and test agent extracted with an acetonitrile homogenization method (1 mL acetonitrile: 1 g brain). Supernatant samples were stored at −80° C. for subsequent analysis of brain levels of test compound. Brain levels of test agent were analyzed by LC/MS/MS.

Another data set concerns the target alpha-synuclein (Homo sapiens, UniProt P37840). The data set can be described thus: alpha-synuclein aggregation assay (ThT, analogous to Example 1). As to conditions: 10 μM compound. It counts as biochemical. The method, then:
Analogous to the method of Example 1, the ability of compounds to inhibit the aggregation of alpha-synuclein was performed by substituting Aβ with alpha-synuclein.

The nature of data set [2]: Blood-brain barrier penetration potential using MDR1-MDCK cell monolayers. As to conditions: dog. It counts as in vitro ADME. From the text: This assay is used to determine the blood-brain barrier (BBB) penetration potential of a test compound using MDR1-MDCK cell monolayers. Further details on this method may be found in Taub M E, et al., Functional assessment of multiple Pglycoprotein (P-gp) probe substrates: Influence of cell line and modulator concentration on P-gp activity. Drug Metab Dispos. 2005 November; 33(11): 1679-87 and Wang Q, et al., Evaluation of the MDR-MDCK cell line as a permeability screen for the blood-brain barrier. Int J. Pharm. 2005 Jan. 20; 288(2):349-59; each of which is hereby incorporated by reference. Test compound was formulated in 300 μL of DMSO at 10 mM and diluted to 5 μM in HBSSg with maximum DMSO concentration not greater than 1%. Confluent monolayers of MDR1-MDCK cells, 7 to 11 days old, were used. A receiver well, having apical and basolateral sides at pH 7.4, was used with 1% BSA in modified Hanks buffer (HBSSg). Two monolayers were dosed with test compound in each direction (N=2). Apical side dosing was used for A-B assessment and basolateral side was used for B-A assessment; taken together, this information provides a bidirectional permeability potential. Apical and basolateral sides were sampled at 120 minutes and concentrations of test compound were determined using an LC-MS/MS method with a minimum 4 point calibration curve. Apparent permeability (Papp) in both directions (A-B and B-A) was calculated, as was the efflux ratio (Papp B-A)/(Papp A-B).

In another data set the test system is 5xFAD mouse. The data set can be described thus: In vivo efficacy trial in the 5xFAD transgenic AD mouse model. As to conditions: wildtype littermate mice. From the text: The 5xFAD mouse (B6SJL-Tg(SwFLon,PSEN1*M 146L*L286V)6799Vas/J; JAX #006554) overexpresses human APP(695) with the Swedish (K670N,M671L), Florida (I716V) and London (V717I) familial AD (FAD) mutations, as well as human presenilin 1 (PSI) with two FAD mutations (M 146L and L286V). These five mutations act additively, leading to large and rapid age-related increases in neuronal Aβ-40 and Aβ-42 peptides beginning at 2 months of age. […] Extra-cellular Aβ plaques are first observed in the hippocampus, subiculum, frontal cortex and spinal cord at 2-3 months of age and increase with age. No neurofibrillary tangles (tau) are observed in the brains of 5xFAD mice. […] Active astrocytes are commonly found surrounding β-amyloid plaques and levels of the pre-synaptic marker synaptophysin are decreased, indicating a decrease in synaptic connectivity to the 5xFAD mouse (Oakley et al., 2006). […] Age-related cognitive impairment in visuo-spatial working memory in the Y-maze occurs at 4-5 months of age. […]
The general procedure for an in vivo efficacy trial with 5xFAD mice is as follows. […] After behavioral testing, mice are sacrificed and their blood and brains assessed for Aβ levels.

Tau441, sequence (P10636 1-441 isoform P10636-8): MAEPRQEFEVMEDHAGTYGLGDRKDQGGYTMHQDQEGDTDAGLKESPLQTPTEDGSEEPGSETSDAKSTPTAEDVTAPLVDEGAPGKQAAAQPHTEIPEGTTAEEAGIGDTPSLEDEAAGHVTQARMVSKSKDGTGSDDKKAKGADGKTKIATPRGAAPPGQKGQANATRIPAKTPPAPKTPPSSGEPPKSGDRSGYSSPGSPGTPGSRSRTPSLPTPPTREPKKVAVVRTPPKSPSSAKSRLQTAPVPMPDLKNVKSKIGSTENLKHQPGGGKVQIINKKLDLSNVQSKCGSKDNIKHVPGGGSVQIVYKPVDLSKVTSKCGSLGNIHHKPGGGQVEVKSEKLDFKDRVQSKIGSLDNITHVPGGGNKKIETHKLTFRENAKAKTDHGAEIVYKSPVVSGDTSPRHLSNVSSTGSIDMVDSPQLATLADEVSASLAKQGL

For orientation: Kp means the ratio of the level in a tissue or fluid to that in plasma or blood. For `O=[N+]([O-])c1ccc(-c2cccc(C(O)C(F)(F)F)c2)cc1NCc1ccccc1` (stereo not shown) [TRV 1140, 1-(3′-(benzylamino)-4′-nitro-[1,1′-biphenyl]-3-yl)-2,2,2-trifluoroethanol], on Tau441, the “relative potency in tau aggregation assay (lower fluorescence is better)” value was “Most potent”. The brain penetrance entry in data set [1] (20 mg/kg) was “highly brain penetrable”. In data set [1] (20 mg/kg once daily, third day), the “time of maximum concentration (blood and brain)” value amounted to 4 h. For the same compound, the “total drug exposure in blood” value in data set [1] (20 mg/kg once daily, third day, 0-4 hr) is 450 ng·h/mL. The “total drug exposure in brain” value in data set [1] (20 mg/kg once daily, third day, 0-4 hr, mean of two samples) is 694 ng·h/mL. Also, the Kp in data set [1] (mouse, brain / plasma (method describes hemolyzed whole blood), 20 mg/kg once daily, third day) came out at 1.54. In addition, the Cmax in data set [1] (mouse, brain, 20 mg/kg once daily, third day, read-out: Maximum concentration (Cmax) in brain) worked out at 238 ng/mL; in data set [1] (mouse, whole blood, 20 mg/kg once daily, third day, read-out: Maximum concentration (Cmax) in blood) it was 87.5 ng/mL. Further, the “inhibition of alpha-synuclein aggregation” value against alpha-synuclein was “inhibit alpha-synuclein aggregation at 10 μM”. Besides, the Papp A→B at 120 min, 5 µM in data set [2] (MDCK-MDR1, apical dosing, pH 7.4, read-out: Papp A-B × 10^−6 cm/s) worked out at 15.3 ×10⁻⁶ cm/s. Further, the Papp B→A at 120 min, 5 µM in data set [2] (MDCK-MDR1, basolateral dosing, pH 7.4, read-out: Papp B-A × 10^−6 cm/s) was determined as 12.4 ×10⁻⁶ cm/s. Also, in data set [2] (MDCK-MDR1, pH 7.4, read-out: Efflux ratio (Papp B-A)/(Papp A-B)), the efflux ratio at 120 min, 5 µM was 0.8. The “behavioural performance, WT with compound versus WT with vehicle” value with 5xFAD mouse is “no difference in behavioural performance”.
